Our source for the normalised inhibition (eCFP-eYFP dual reporter) values is the OligoGym collection.

Oligonucleotides are written 5' to 3', each unit as a sugar letter and its base; * is a phosphorothioate linkage, no mark a phosphodiester; rarer units and linkages stand in square brackets, end groups in braces. Plain capitals give the bases only. d = 2'-deoxy (DNA); r = 2'-OH (RNA)
Further: test concentration or dose not given here.

For the first data set, the target named is UBE2C. As to the kind of experiment: reporter assay of Huesken 2005. The conditions noted are these: siRNA.
In the case of “sense rCrCrArCrArGrUrGrArArGrUrUrCrCrUrCrArCdTdT / antisense rGrUrGrArGrGrArArCrUrUrCrArCrUrGrUrGrGdGdC”, the normalised inhibition (eCFP-eYFP dual reporter) is 74.3%.
Substance “sense rCrCrArUrCrCrArUrGrGrArGrCrArGrCrUrGrGdTdT / antisense rCrCrArGrCrUrGrCrUrCrCrArUrGrGrArUrGrGdTdC” came in with a normalised inhibition (eCFP-eYFP dual reporter) of 80.7%.
Consider “sense rCrCrCrArGrUrGrGrCrUrArCrCrCrUrUrArCrAdTdT / antisense rUrGrUrArArGrGrGrUrArGrCrCrArCrUrGrGrGdGdA”, for which the normalised inhibition (eCFP-eYFP dual reporter) was determined as 85.7%.
The substance “sense rCrCrCrCrArGrUrGrGrCrUrArCrCrCrUrUrArCdTdT / antisense rGrUrArArGrGrGrUrArGrCrCrArCrUrGrGrGrGdAdA” registered a normalised inhibition (eCFP-eYFP dual reporter) of 67.7%.
“sense rCrCrCrUrGrCrUrArUrCrArCrCrCrCrArArCrGdTdT / antisense rCrGrUrUrGrGrGrGrUrGrArUrArGrCrArGrGrGdCdG” yielded a normalised inhibition (eCFP-eYFP dual reporter) of 53.1%.
“sense rCrCrUrGrGrArCrArUrCrCrUrGrArArGrGrArAdTdT / antisense rUrUrCrCrUrUrCrArGrGrArUrGrUrCrCrArGrGdCdA” returned a normalised inhibition (eCFP-eYFP dual reporter) of 74.2%.
The same measure, in the same setting: for “sense rCrCrUrGrUrArUrGrArUrGrUrCrArGrGrArCrCdTdT / antisense rGrGrUrCrCrUrGrArCrArUrCrArUrArCrArGrGdGdC” the value was 42%; for “sense rCrGrCrUrArGrArGrUrUrCrCrCrCrArGrUrGrGdTdT / antisense rCrCrArCrUrGrGrGrGrArArCrUrCrUrArGrCrGdAdG”, 86.9%; for “sense rCrUrArUrCrArCrCrCrCrArArCrGrUrGrGrArCdTdT / antisense rGrUrCrCrArCrGrUrUrGrGrGrGrUrGrArUrArGdCdA”, 77.2%.
“sense rCrUrCrCrArUrCrCrArGrArGrCrCrUrUrCrUrAdTdT / antisense rUrArGrArArGrGrCrUrCrUrGrGrArUrGrGrArGdAdG”: the normalised inhibition (eCFP-eYFP dual reporter) worked out at 81.9%.
In turn, “sense rCrUrGrArGrGrUrArUrArArGrCrUrCrUrCrGrCdTdT / antisense rGrCrGrArGrArGrCrUrUrArUrArCrCrUrCrArGdGdT” gave a normalised inhibition (eCFP-eYFP dual reporter) of 75.8%.
“sense rCrUrUrCrUrArGrGrArGrArArCrCrCrArArCrAdTdT / antisense rUrGrUrUrGrGrGrUrUrCrUrCrCrUrArGrArArGdGdC”: the normalised inhibition (eCFP-eYFP dual reporter) amounted to 86.1%.
The substance “sense rGrArArCrArCrArCrArUrGrCrUrGrCrCrGrArGdTdT / antisense rCrUrCrGrGrCrArGrCrArUrGrUrGrUrGrUrUrCdAdA” yielded a normalised inhibition (eCFP-eYFP dual reporter) of 89.6%.
For the substance “sense rGrArArCrArGrUrArUrArUrGrArArGrArCrCrUdTdT / antisense rArGrGrUrCrUrUrCrArUrArUrArCrUrGrUrUrCdCdA”, the normalised inhibition (eCFP-eYFP dual reporter) is 86.9%.
In the case of “sense rGrArArGrGrArArArArGrUrGrGrUrCrUrGrCrCdTdT / antisense rGrGrCrArGrArCrCrArCrUrUrUrUrCrCrUrUrCdAdG”, the normalised inhibition (eCFP-eYFP dual reporter) turned out to be 63.3%.
Regarding “sense rGrArArGrUrUrCrCrUrCrArCrGrCrCrCrUrGrCdTdT / antisense rGrCrArGrGrGrCrGrUrGrArGrGrArArCrUrUrCdAdC”, the normalised inhibition (eCFP-eYFP dual reporter) was 40.9%.
“sense rGrArGrArArCrCrCrArArCrArUrUrGrArUrArGdTdT / antisense rCrUrArUrCrArArUrGrUrUrGrGrGrUrUrCrUrCdCdT” gave a normalised inhibition (eCFP-eYFP dual reporter) of 66.3%.
“sense rGrArGrCrArGrCrUrGrGrArArCrArGrUrArUrAdTdT / antisense rUrArUrArCrUrGrUrUrCrCrArGrCrUrGrCrUrCdCdA” displayed a normalised inhibition (eCFP-eYFP dual reporter) of 85.2%.
“sense rGrArUrGrUrCrArGrGrArCrCrArUrUrCrUrGrCdTdT / antisense rGrCrArGrArArUrGrGrUrCrCrUrGrArCrArUrCdAdT” returned a normalised inhibition (eCFP-eYFP dual reporter) of 48.8%.
Same read-out and setting: for “sense rGrCrCrCrArCrArGrUrGrArArGrUrUrCrCrUrCdTdT / antisense rGrArGrGrArArCrUrUrCrArCrUrGrUrGrGrGrCdGdC” the value was 46.7%; for “sense rGrCrCrCrUrGrCrUrArUrCrArCrCrCrCrArArCdTdT / antisense rGrUrUrGrGrGrGrUrGrArUrArGrCrArGrGrGrCdGdT”, 63.4%; for “sense rGrCrCrUrGrGrArCrArUrCrCrUrGrArArGrGrAdTdT / antisense rUrCrCrUrUrCrArGrGrArUrGrUrCrCrArGrGrCdAdT”, 85.8%.
“sense rGrCrCrUrUrCrUrArGrGrArGrArArCrCrCrArAdTdT / antisense rUrUrGrGrGrUrUrCrUrCrCrUrArGrArArGrGrCdTdC” had a normalised inhibition (eCFP-eYFP dual reporter) of 92.8%.
“sense rGrCrGrCrCrCrArCrArGrUrGrArArGrUrUrCrCdTdT / antisense rGrGrArArCrUrUrCrArCrUrGrUrGrGrGrCrGrCdAdT” gave a normalised inhibition (eCFP-eYFP dual reporter) of 70.9%.
In the case of “sense rGrCrUrArGrArGrUrUrCrCrCrCrArGrUrGrGrCdTdT / antisense rGrCrCrArCrUrGrGrGrGrArArCrUrCrUrArGrCdGdA”, the normalised inhibition (eCFP-eYFP dual reporter) turned out to be 69%.
Take “sense rGrCrUrArUrCrArCrCrCrCrArArCrGrUrGrGrAdTdT / antisense rUrCrCrArCrGrUrUrGrGrGrGrUrGrArUrArGrCdAdG”: the normalised inhibition (eCFP-eYFP dual reporter) was 89.4%.
In the case of “sense rGrCrUrGrGrArArCrArGrUrArUrArUrGrArArGdTdT / antisense rCrUrUrCrArUrArUrArCrUrGrUrUrCrCrArGrCdTdG”, the normalised inhibition (eCFP-eYFP dual reporter) is 90.4%.
In turn, “sense rGrGrUrArUrArArGrCrUrCrUrCrGrCrUrArGrAdTdT / antisense rUrCrUrArGrCrGrArGrArGrCrUrUrArUrArCrCdTdC” came in with a normalised inhibition (eCFP-eYFP dual reporter) of 91.3%.
As to “sense rGrGrUrCrUrGrCrCrCrUrGrUrArUrGrArUrGrUdTdT / antisense rArCrArUrCrArUrArCrArGrGrGrCrArGrArCrCdAdC”, the normalised inhibition (eCFP-eYFP dual reporter) amounted to 55.5%.
“sense rGrUrGrGrCrUrArCrCrCrUrUrArCrArArUrGrCdTdT / antisense rGrCrArUrUrGrUrArArGrGrGrUrArGrCrCrArCdTdG” had a normalised inhibition (eCFP-eYFP dual reporter) of 87.8%.
For “sense rUrArArGrCrUrCrUrCrGrCrUrArGrArGrUrUrCdTdT / antisense rGrArArCrUrCrUrArGrCrGrArGrArGrCrUrUrAdTdA”, the normalised inhibition (eCFP-eYFP dual reporter) worked out at 60.2%.
On to “sense rUrArGrArGrUrUrCrCrCrCrArGrUrGrGrCrUrAdTdT / antisense rUrArGrCrCrArCrUrGrGrGrGrArArCrUrCrUrAdGdC”, for which the normalised inhibition (eCFP-eYFP dual reporter) was 67.2%.
In the case of “sense rUrArGrUrCrCrCrUrUrGrArArCrArCrArCrArUdTdT / antisense rArUrGrUrGrUrGrUrUrCrArArGrGrGrArCrUrAdTdC”, the normalised inhibition (eCFP-eYFP dual reporter) worked out at 76.1%.
“sense rUrArUrGrArUrGrUrCrArGrGrArCrCrArUrUrCdTdT / antisense rGrArArUrGrGrUrCrCrUrGrArCrArUrCrArUrAdCdA” had a normalised inhibition (eCFP-eYFP dual reporter) of 32.1%.
In the case of “sense rUrCrCrUrGrArArGrGrArArArArGrUrGrGrUrCdTdT / antisense rGrArCrCrArCrUrUrUrUrCrCrUrUrCrArGrGrAdTdG”, the normalised inhibition (eCFP-eYFP dual reporter) stood at 71.8%.
Substance “sense rUrCrUrArGrGrArGrArArCrCrCrArArCrArUrUdTdT / antisense rArArUrGrUrUrGrGrGrUrUrCrUrCrCrUrArGrAdAdG” came in with a normalised inhibition (eCFP-eYFP dual reporter) of 88.8%.
Turning to “sense rUrGrArArCrArCrArCrArUrGrCrUrGrCrCrGrAdTdT / antisense rUrCrGrGrCrArGrCrArUrGrUrGrUrGrUrUrCrAdAdG”, the normalised inhibition (eCFP-eYFP dual reporter) amounted to 86.5%.
Still for that read-out and setting: under “sense rUrGrArGrGrUrArUrArArGrCrUrCrUrCrGrCrUdTdT / antisense rArGrCrGrArGrArGrCrUrUrArUrArCrCrUrCrAdGdG” stands 80.6%.
Turning to “sense rUrGrCrCrCrUrGrUrArUrGrArUrGrUrCrArGrGdTdT / antisense rCrCrUrGrArCrArUrCrArUrArCrArGrGrGrCrAdGdA”, the normalised inhibition (eCFP-eYFP dual reporter) was determined as 50.8%.
As for “sense rUrGrCrCrUrGrGrArCrArUrCrCrUrGrArArGrGdTdT / antisense rCrCrUrUrCrArGrGrArUrGrUrCrCrArGrGrCrAdTdA”, the normalised inhibition (eCFP-eYFP dual reporter) came to 49.2%.
Consider “sense rUrGrGrCrUrArCrCrCrUrUrArCrArArUrGrCrGdTdT / antisense rCrGrCrArUrUrGrUrArArGrGrGrUrArGrCrCrAdCdT”, for which the normalised inhibition (eCFP-eYFP dual reporter) is 61.3%.
Substance “sense rUrGrGrUrCrUrGrCrCrCrUrGrUrArUrGrArUrGdTdT / antisense rCrArUrCrArUrArCrArGrGrGrCrArGrArCrCrAdCdT” registered a normalised inhibition (eCFP-eYFP dual reporter) of 28.6%.

A further data set deals with UBE2M. Description: reporter assay of Huesken 2005. Particulars: siRNA.
Substance “sense rArArCrGrUrGrCrArGrCrGrCrUrCrCrArUrGrCdTdT / antisense rGrCrArUrGrGrArGrCrGrCrUrGrCrArCrGrUrUdCdT” had a normalised inhibition (eCFP-eYFP dual reporter) of 61.2%.
Take “sense rArArCrUrCrCrArUrArArUrUrUrArUrGrGrCrCdTdT / antisense rGrGrCrCrArUrArArArUrUrArUrGrGrArGrUrUdTdA”: the normalised inhibition (eCFP-eYFP dual reporter) amounted to 49.7%.
The same measure, in the same setting: for “sense rArArGrArGrUrGrGrGrArArGrUrUrUrGrUrGrUdTdT / antisense rArCrArCrArArArCrUrUrCrCrCrArCrUrCrUrUdGdT” the value was 85.1%; for “sense rArCrGrArGrCrUrGrArArCrCrUrGrCrCrCrArAdTdT / antisense rUrUrGrGrGrCrArGrGrUrUrCrArGrCrUrCrGrUdTdT”, 66%; for “sense rArCrGrArUrArArArCrUrCrCrArUrArArUrUrUdTdT / antisense rArArArUrUrArUrGrGrArGrUrUrUrArUrCrGrUdAdA”, 82.2%.
On the same count and under the same terms, for “sense rArCrGrUrCrUrGrCrCrUrCrArArCrArUrCrCrUdTdT / antisense rArGrGrArUrGrUrUrGrArGrGrCrArGrArCrGrUdTdG” the value was 80.4%; for “sense rArGrArArCrArArCrCrGrGrCrGrGrCrUrGrUrUdTdT / antisense rArArCrArGrCrCrGrCrCrGrGrUrUrGrUrUrCrUdGdC”, 61.2%.
